{
  "source": "ChEMBL document CHEMBL3102777",
  "about": "“Binding ability of a thymine-functionalized oligolysine towards nucleic acids” (Bioorg Med Chem, 2014)",
  "key": {"[1]": {"assay": "Binding affinity to […] RNA (unknown origin) at 2:1 compound to RNA ratio by circular dichroism analysis"}, "[2]": {"assay": "Binding affinity to […] RNA (unknown origin) by surface plasmon resonance assay"}, "[3]": {"assay": "Binding affinity to poly rA RNA (unknown origin) at 2:1 compound to RNA ratio assessed as melting temperature by circular dichroism analysis"}, "[4]": {"assay": "Binding affinity to poly rA RNA (unknown origin) at 24 nM by circular dichroism analysis"}, "[5]": {"assay": "Binding affinity to poly rA RNA (unknown origin) at 2:1 compound to RNA ratio by circular dichroism analysis"}, "[6]": {"assay": "Half life in 94% human serum at 14 uM", "format": "ADME"}, "[7]": {"assay": "Binding affinity to dT12 DNA (unknown origin) at 24 nM by circular dichroism analysis"}, "[8]": {"assay": "Binding affinity to dA12 DNA (unknown origin) at 10 uM assessed as melting temperature by UV analysis"}, "[9]": {"assay": "Binding affinity to dA12 DNA (unknown origin) at 2.5:1 compound to DNA ratio by circular dichroism analysis"}, "[10]": {"assay": "Binding affinity to […] RNA (unknown origin) at 12.8 uM assessed as melting temperature by UV analysis"}, "[11]": {"assay": "Binding affinity to […] RNA (unknown origin) at 1.5:1 compound to RNA ratio by circular dichroism analysis"}, "[12]": {"assay": "Binding affinity to dA12 DNA (unknown origin) at 24 nM by circular dichroism analysis"}, "[13]": {"assay": "Binding affinity to poly rA RNA (unknown origin) by surface plasmon resonance assay"}},
  "note": "Active and inactive are the calls of the source. No cut-off for these calls is given here. Residues, ends and D or L forms follow the SMILES beside them. *: point of attachment. Acetyl(thymin-1-yl) = Cc1cn(CC(=O)*)c(=O)[nH]c1=O",
  "data": [
    {"molecule": "Cc1cn(CC(=O)NCCCC[C@H](NC(=O)[C@H](CCCCN)NC(=O)[C@H](CCCCNC(=O)Cn2cc(C)c(=O)[nH]c2=O)NC(=O)[C@H](CCCCN)NC(=O)[C@H](CCCCNC(=O)Cn2cc(C)c(=O)[nH]c2=O)NC(=O)[C@H](CCCCN)NC(=O)[C@H](CCCCNC(=O)Cn2cc(C)c(=O)[nH]c2=O)NC(=O)[C@H](CCCCN)NC(=O)[C@H](CCCCNC(=O)Cn2cc(C)c(=O)[nH]c2=O)NC(=O)[C@H](CCCCN)NC(=O)[C@@H](N)CCCCNC(=O)Cn2cc(C)c(=O)[nH]c2=O)C(=O)N[C@@H](CCCCN)C(N)=O)c(=O)[nH]c1=O", "note": "(H-K(Acetyl(thymin-1-yl))KK(Acetyl(thymin-1-yl))KK(Acetyl(thymin-1-yl))KK(Acetyl(thymin-1-yl))KK(Acetyl(thymin-1-yl))KK(Acetyl(thymin-1-yl))K-NH2)", "values": [
      {"measurement": "Activity", "setting": "[1]", "result": "Active"},
      {"measurement": "Activity", "setting": "[2]", "result": "Active"},
      {"measurement": "Tm", "setting": "[3]", "result": 35, "unit": "°C"},
      {"measurement": "Activity", "setting": "[4]", "result": "Active"},
      {"measurement": "Activity", "setting": "[5]", "result": "Active"},
      {"measurement": "half-life at 14 µM", "setting": "[6]", "result": 45, "unit": "min"},
      {"measurement": "Activity", "setting": "[7]", "result": "Active"},
      {"measurement": "Tm", "setting": "[8]", "result": 25, "unit": "°C"},
      {"measurement": "Activity", "setting": "[9]", "result": "Active"},
      {"measurement": "Tm", "setting": "[10]", "result": 27, "unit": "°C"},
      {"measurement": "Activity", "setting": "[11]", "result": "Active"},
      {"measurement": "Activity", "setting": "[12]", "result": "Active"},
      {"measurement": "Activity", "setting": "[13]", "result": "Active"}
    ]}
  ]
}
